Assay: Rate of dissolution of acetaminophen and acetaminophen/nanoparticle mixtures in DIW by UV/Vis absorbance at 243 nm
Type: physicochemical
Details: 0.013 g in 1000 mL DIW
Procedure: The following procedure (similar to USP30-NF 25, Mar. 17, 2008) was used to measure the rate and intensity of dissolution of acetaminophen and acetaminophen/nanoparticle mixtures in Millipore H2O (i.e., DIW).
Three samples of acetaminophen were weighed out. One sample was used as a control sample (Comparative K). A pre-determined amount of surface modified nanoparticles were added to each of the other samples. Sample 14 was combined with 1 weight percent nanoparticles (0.013 g) and sample 15 was combined with 0.5 weight percent nanoparticles (0.0065 g). Each blended sample was prepared by adding the nanoparticles to the acetaminophen. […]
Each blended sample was then measured separately by adding to different glass beakers, each of which contained 1000 mL of DIW and a magnetic stir-bar. […] 0.013 g of the blended samples were measured out and added to the stirred DIW.
While the acetaminophen was being dissolved in the DIW, 1.5 mL samples of the DIW and acetaminophen mixtures were removed every two minutes by pipette. The UV/Vis spectra of the samples were immediately measured using a UV/Vis spectrophotometer (obtained from PerkinElmer, Waltham, Mass., under the trade designation “LAMBDA 35 UV/VIS SPECTROPHOTOMETER), specifically focusing on the 243 nm absorbance.
This was determined to be the final measured value needed for subsequent experiments. […]

- absorbance intensity at 243 nm (final measured value) (stirred, plateau value): approximately 0.86
- Slope (slope between first two time points: change in absorbance at 243 nm/change in time, in seconds): 0.0029
SMILES: CC(=O)Nc1ccc(O)cc1 [Comparative K, acetaminophen]
